Data from patent US20260356823A1, “SODIUM CHANNEL REGULATOR AND USE THEREOF” (SHANGHAI HUILUN PHARMACEUTICAL CO., LTD., priority 2022, published 2026).

Columns and labels:
human Nav1.8 = target: T1, human Nav1.8 (Homo sapiens, UniProt Q9Y5Y9); assay: In vitro inhibition of Nav1.8, manual patch clamp on HEK293 cells stably expressing human Nav1.8; type: cell-based; conditions: human Nav1.8, manual patch clamp; for inhibition at 0.1 µM: HEK293, 100 nM, read-out: Inhibitory activity (inhibition/% at 100 nM concentration)
T1 construct: expressed in transfected cells
Procedure: Bioactivity Test 1: In Vitro Inhibition of Nav1.8 by the Compound
By using a manual patch clamp on HEK293 cells stably expressing human Nav1.8, currents on Nav1.8 before and after administration of the compound were compared after the currents on Nav1.8 were stable, to obtain the effect of the compound on the Nav1.8 channel.
The to-be-tested compound was dissolved in DMSO to prepare a 9 mM stock solution, which was taken and dissolved in extracellular fluid at a desired concentration on the day of testing. The extracellular fluid included the following ingredients (mM): NaCl, 137; KCl, 4; CaCl2, 1.8; MgCl2, 1; HEPES, 10; glucose, 10; and pH 7.4 (NaOH titration). All reagents were purchased from Sigma (St. Louis, MO).
The cells were clamped at −80 mV and depolarized with a sustained 10 ms square wave to 10 mV to obtain a current on Nav1.8. This process was repeated every 5 seconds. A maximum current caused by the square wave was detected. After the current is stable, the to-be-tested compound (dissolved in the extracellular fluid at the desired concentration) was perfused. After the current is stable, the strength of blocking Nav1.8 by the compound was calculated based on the currents before and after perfusion of the compound. pCLAMP 10 (Molecular Devices, Union City, CA) was used. That the current is stable means that the current changes over time within a limited range.

Nav1.8 sodium channel = target: T2, Nav1.8 sodium channel (Homo sapiens, UniProt Q9Y5Y9); assay: In vitro inhibition IC50 of Nav1.8, whole-cell patch clamp on CHO cell line stably expressing Nav1.8 (SCN10A, NM_006514); type: cell-based; conditions: CHO cells stably expressing Nav1.8, whole-cell patch clamp, room temperature
T2 construct: expressed in transfected cells
Excerpt: Bioactivity Test 2: In Vitro Inhibition IC50 of Nav1.8 by the Test Compound
A CHO cell line stably expressing the Nav1.8 sodium channel was used for experimental assays with the following gene information: Sodium channel, voltage-gated, type 8, alpha (SCN10A), cDNA strictly similar to GenBank accession number: NM_006514.
Before the patch clamp assay, the cells were detached with 0.25%-Trypsin-EDTA, and 6.5×10^3 cells were spread onto cover slips and cultured in a 24-well plate (final volume: 500 μL) for 18 h. Then, the assay was carried out.
Fluids for electrophysiological recording included: extracellular fluid: K-007-1, 140 mM NaCl, 3.5 mM KCl, 1 mM MgCl2·6H2O, 2 mM CaCl2·2H2O, 10 mM D-Glucose, 10 mM HEPES, 1.25 mM NaH2PO4·2H2O, and NaOH for adjustment to pH=7.4; and intracellular fluid: Nav-001-2, 50 mM CsCl, 10 mM NaCl, 10 mM HEPES, 60 mM CsF, 20 mM EGTA, and […]. The extracellular fluid was stored for 2 weeks. The intracellular fluid was prepared and dispensed as 1 mL per tube, and frozen in a refrigerator at −20° C. Freshly thawed intracellular fluid was used for daily experiments. All intracellular fluids have to be used up within three months. Beyond three months, the old intracellular fluid has to be discarded, and the intracellular fluid needs to be prepared again.
Patch clamp assay: Whole-cell patch-clamp recording Nav1.8 sodium currents under voltage stimulation was carried out as follows: When a whole-cell seal was formed, the cell was clamped at a voltage of −120 mV and maintained for 30 ms. The cell was depolarized from the clamping voltage to 0 mV and maintained for 50 ms. Then, the voltage was restored to −50 mV (for a specific voltage, refer to a half-inactivation voltage from an IV test) and maintained for 5 s. Next, the cell membrane potential was restored to −120 mV and maintained for 20 ms. Then, the cell was depolarized to 0 mV and maintained for 50 ms. Finally, the voltage was restored to the clamping voltage −120 mV and maintained for 30 ms. Data was collected at […]. The effect of the drug on a peak sodium current was observed. Experimental data was collected by an EPC 10 amplifier (HEKA) and stored in PatchMaster (HEKA) software.
A capillary glass tube was pulled into a recording electrode by using a microelectrode puller. The electrode filled with the intracellular fluid was loaded into an electrode holder. A microelectrode manipulator was manipulated under an inverted microscope to immerse the electrode into the extracellular fluid, and an electrode resistance (Rpip) was recorded. The electrode was brought into contact with the cell surface, and suction was applied under negative pressure to form a high-resistance seal (GQ). In this case, fast capacitance compensation was carried out, and negative pressure was then applied to break the cell membrane through suction to form a whole-cell recording mode. Then, slow capacitance compensation was carried out, and experimental parameters such as a membrane capacitance (Cm) and a series resistance (Rs) were recorded. No leakage compensation was carried out.
The drug was administered after the Nav1.8 current obtained by whole-cell recording. The drug acted at each concentration for 5 min (or until the current was stable), and then the drug was tested at a next concentration. Each test compound was tested for multiple concentrations. The cover slips with the cells spread were placed in a recording bath under an inverted microscope. A blank control extracellular fluid and a working solution of the to-be-tested compound were perfused by gravity through the recording bath into the cells from low concentration to high concentration. Fluid exchange was carried out by using a peristaltic pump during the recording. A current detected for each cell in the compound-free extracellular fluid served as its own control. For each concentration, at least three cells were tested independently for three times. […]

Nav1.8 = conditions: background; cited from earlier work
[1] = background; cited from earlier work

T2 sequence (Q9Y5Y9 whole entry): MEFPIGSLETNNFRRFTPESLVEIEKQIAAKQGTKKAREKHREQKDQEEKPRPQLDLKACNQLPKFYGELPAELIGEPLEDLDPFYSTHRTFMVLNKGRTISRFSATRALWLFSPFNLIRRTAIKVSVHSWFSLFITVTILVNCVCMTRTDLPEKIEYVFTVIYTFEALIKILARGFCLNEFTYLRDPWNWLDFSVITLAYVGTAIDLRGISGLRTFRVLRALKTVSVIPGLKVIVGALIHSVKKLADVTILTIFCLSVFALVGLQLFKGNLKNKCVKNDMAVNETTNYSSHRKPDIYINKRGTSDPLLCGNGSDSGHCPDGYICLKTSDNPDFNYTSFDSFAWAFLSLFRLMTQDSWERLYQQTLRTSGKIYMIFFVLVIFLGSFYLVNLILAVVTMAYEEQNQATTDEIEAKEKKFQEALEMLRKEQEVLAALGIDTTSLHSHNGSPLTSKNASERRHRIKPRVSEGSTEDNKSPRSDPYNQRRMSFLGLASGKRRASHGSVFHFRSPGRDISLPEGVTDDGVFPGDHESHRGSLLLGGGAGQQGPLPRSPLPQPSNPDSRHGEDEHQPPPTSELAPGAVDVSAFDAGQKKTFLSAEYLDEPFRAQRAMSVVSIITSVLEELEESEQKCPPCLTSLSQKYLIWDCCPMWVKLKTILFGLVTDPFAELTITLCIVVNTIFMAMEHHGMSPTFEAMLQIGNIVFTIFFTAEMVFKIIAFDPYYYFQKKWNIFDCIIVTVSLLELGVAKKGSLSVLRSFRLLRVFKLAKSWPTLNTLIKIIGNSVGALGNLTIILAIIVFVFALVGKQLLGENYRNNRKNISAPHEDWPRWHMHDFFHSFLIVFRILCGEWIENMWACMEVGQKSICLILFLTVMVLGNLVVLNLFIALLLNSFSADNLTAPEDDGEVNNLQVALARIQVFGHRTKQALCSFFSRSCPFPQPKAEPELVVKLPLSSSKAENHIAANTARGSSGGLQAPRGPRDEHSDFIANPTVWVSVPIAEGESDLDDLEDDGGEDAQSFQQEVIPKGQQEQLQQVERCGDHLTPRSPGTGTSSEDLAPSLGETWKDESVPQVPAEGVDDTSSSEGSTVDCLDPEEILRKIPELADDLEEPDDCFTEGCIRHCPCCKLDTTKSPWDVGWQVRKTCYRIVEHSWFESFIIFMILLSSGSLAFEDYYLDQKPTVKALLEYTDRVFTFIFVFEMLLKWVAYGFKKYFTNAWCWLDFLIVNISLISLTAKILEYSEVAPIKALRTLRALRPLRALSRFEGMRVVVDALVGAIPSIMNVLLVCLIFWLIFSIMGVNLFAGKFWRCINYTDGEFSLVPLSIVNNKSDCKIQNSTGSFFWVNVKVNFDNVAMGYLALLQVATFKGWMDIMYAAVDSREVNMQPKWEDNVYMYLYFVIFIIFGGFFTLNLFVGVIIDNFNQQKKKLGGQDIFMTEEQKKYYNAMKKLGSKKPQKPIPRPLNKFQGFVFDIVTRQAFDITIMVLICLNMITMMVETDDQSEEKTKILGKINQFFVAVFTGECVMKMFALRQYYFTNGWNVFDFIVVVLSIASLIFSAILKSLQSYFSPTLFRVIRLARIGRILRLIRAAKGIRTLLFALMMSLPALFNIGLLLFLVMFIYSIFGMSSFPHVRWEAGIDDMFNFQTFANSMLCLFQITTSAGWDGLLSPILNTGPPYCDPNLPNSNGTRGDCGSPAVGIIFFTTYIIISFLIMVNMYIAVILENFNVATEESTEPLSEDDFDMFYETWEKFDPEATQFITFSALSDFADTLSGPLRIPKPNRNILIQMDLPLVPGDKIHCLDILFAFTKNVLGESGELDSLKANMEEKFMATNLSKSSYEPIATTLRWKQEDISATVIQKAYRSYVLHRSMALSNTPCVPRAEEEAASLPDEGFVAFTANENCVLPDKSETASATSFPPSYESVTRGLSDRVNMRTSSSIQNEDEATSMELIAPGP
T1 sequence (Q9Y5Y9 whole entry): as above

inhibition at 0.1 µM (human Nav1.8)	IC50 (Nav1.8 sodium channel)	Inhibitory activity (inhibition/% at 100 nM concentration) (human Nav1.8; 100 nM, 0.1 µM)	Structure (SMILES)	selectivity (in words) (Nav1.8)	bioavailability (in words) [1]	pharmacokinetic data (in words) [1]
≥ 50%	67 nM	–	COc1c([C@H]2[C@H](C(=O)Nc3ccc4c(c3)NC(=O)C4)O[C@@](C)(C(F)(F)F)[C@H]2C)ccc(F)c1F (relative stereo) [Example 2]	–	–	–
≥ 50%	2 nM	–	COc1c([C@H]2[C@H](C(=O)Nc3ccc4c(c3)C(=O)NCC4)O[C@@](C)(C(F)(F)F)[C@H]2C)ccc(F)c1F (relative stereo) [Example 6, rel-(2R,3S,4S,5R)-3-(3,4-difluoro-2-methoxyphenyl)-4,5-dimethyl-N-(1-oxo-1,2,3,4-tetrahydroisoquinolin-7-yl)-5-(trifluoromethyl)tetrahydrofuran-2-carboxamide]	–	–	–
≥ 50%	3 nM	–	COc1c([C@H]2[C@H](C(=O)Nc3ccnc(S(N)(=O)=O)c3)O[C@]3(C(F)(F)F)CC[C@]23C)ccc(F)c1F (relative stereo) [Example 87, rel-(1R,3R,4S,5R)-4-(3,4-difluoro-2-methoxyphenyl)-5-methyl-N-(2-sulfamoylpyridin-4-yl)-1-trifluoromethyl-2-oxabicyclo[3.2.0]heptane-3-carboxamide]	–	–	–
–	–	–	CNC(=O)c1ccc(-c2cc(Cl)cc(Cl)c2Cl)c(N)n1 [PF-01247324]	poor selectivity	low bioavailability	poor pharmacokinetic data
≥ 50%	< 1 nM	–	COc1c([C@H]2[C@H](C(=O)Nc3ccc(F)c(C(N)=O)c3)O[C@]3(C(F)(F)F)CC[C@]23C)ccc(F)c1F (relative stereo) [Example 85, rel-(1R,3R,4S,5R)—N-(3-carbamoyl-4-fluorophenyl)-4-(3,4-difluoro-2-methoxyphenyl)-5-methyl-1-trifluoromethyl-2-oxabicyclo[3.2.0]heptane-3-carboxamide]	–	–	–
≥ 50%	2 nM	–	COc1c([C@H]2[C@H](C(=O)Nc3ccnc(C(N)=O)c3)OC3(C(F)(F)F)CCC23C)ccc(F)c1F (relative stereo) [Example 59, rel-(2R,3S)-4-({[3-(3,4-difluoro-2-methoxyphenyl)-3a-methyl-5a-(trifluoromethyl)hexahydrocyclobuta[2,1-b]furan-2-yl]carbonyl}amino)pyridin-2-carboxamide]	–	–	–
≥ 50%	26 nM	–	CONC(=O)c1cc(NC(=O)[C@@H]2O[C@@](C)(C(F)(F)F)[C@@H](C)[C@H]2c2ccc(F)c(F)c2OC)ccn1 (relative stereo) [Example 21]	–	–	–
≥ 50%	9 nM	–	COc1c([C@H]2[C@H](C(=O)Nc3ccc4cn[nH]c(=O)c4c3)O[C@@](C)(C(F)(F)F)[C@H]2C)ccc(F)c1F (relative stereo) [Example 3, rel-(2R,3S,4S,5R)-3-(3,4-difluoro-2-methoxyphenyl)-4,5-dimethyl-N-4-oxa-3,4-dihydrophthalazin-6-yl)-5-(trifluoromethyl)tetrahydrofuran-2-carboxamide]	–	–	–
≥ 50%	< 0.5 nM	–	COc1c(C2[C@H](C(=O)Nc3ccc(F)c(S(N)(=O)=O)c3)O[C@@](C)(C(F)(F)F)[C@H]2C)ccc(F)c1F (relative stereo) [Example 81]	–	–	–
≥ 50%	< 1 nM	–	[2H]C([2H])([2H])NS(=O)(=O)c1cc(NC(=O)[C@@H]2O[C@@](C)(C(F)(F)F)[C@@H](C)[C@H]2c2ccc(F)c(F)c2OC)ccn1 (relative stereo) [Example 82, rel-(2R,3S,4S,5R)-3-(3,4-difluoro-2-methoxyphenyl)-4,5-dimethyl-N-(2-(N-(methyl-d3)sulfamoyl)pyridin-4-yl)-5-(trifluoromethyl)tetrahydrofuran-2-carboxamide]	–	–	–
–	–	–	COc1cc(NC(=O)c2ccc(-c3ccc(Cl)cc3)o2)cc(OC)c1 [Example A-803467]	poor selectivity	low bioavailability	poor pharmacokinetic data
–	–	–	C[C@@H](C(N)=O)[C@H](N)c1nc2ccc(C(C)(C)C)cc2[nH]1 [PF-06305591]	poor selectivity	low bioavailability	poor pharmacokinetic data
–	< 0.5 nM	A (A ≥ 50)	COc1c(C2C(C(=O)Nc3ccc(C(N)=O)c(C(N)=O)c3)OC(C)(C(F)(F)F)C2C)ccc(F)c1F (single isomer, unassigned) [Example 30-2]	–	–	–
≥ 50%	–	–	COc1c([C@H]2[C@H](C(=O)Nc3cc[n+](C)c(C(N)=O)c3)O[C@@](C)(C(F)(F)F)[C@H]2C)ccc(F)c1F (relative stereo) [Example 16, rel-2-carbamoyl-4-((2R,3S,4S,5R)-3-(3,4-difluoro-2-methoxyphenyl)-4,5-dimethyl-5-(trifluoromethyl)tetrahydrofuran-2-carboxamido)-1-methylpyridin-1-onium iodide]	–	–	–
